Data as given in US9023354B2, “Combination therapy with MDM2 and EFGR inhibitors” (priority 2010, dated 2015).
Where two headings read alike, the source gives them in different places.

System: A431 cells
Test: A431 cell proliferation assay (MTT), alone and in combination with Tarceva
Format: cell-based
Details: for IC50: further studies, Example 9, Table 7A, read-out: A431 Cell Proliferation (IC50 Value); for A431 Cell Proliferation CI Value: combination with Tarceva, CI <0.8 indicates synergy, Example 9, Table 7B
Protocol: This example describes an assay that measures the ability of compounds to inhibit the proliferation of cultured cells. This assay can also be used to assess whether combining two or more compounds produces additive, synergistic, or antagonistic effects on cell growth.
On day 1, the cells were seeded at 10^3 cells per well in 100 μl of complete media under standard conditions.
On day 2, the cells were washed and 100 μl serum free media was added. The cells were then incubated for at least 2 hours before the addition of compound(s). 20 μl of compound(s) was added to the respective wells and incubated at 37° C., 5% CO2 for 72 hrs.
On day 5, 50 μl of the MTT dye solution was added to each well. The plates were incubated at 37° C., 5% CO2 for 1 hr. The media was then aspirated and the cells were resuspended in […] of DMSO. The plates were allowed to incubate for 5 min at room temperature with gentle shaking.
The absorbance in each well was determined at 560 nm using a Polarstar plate reader.
The A431 cell line over-expresses the EGF receptor, and was utilized to assess the ability of AD4 compounds to inhibit EGF-mediated cell proliferation.

[1] = Homo sapiens, A-431, A431 cells

Row | Compound | IC50 [1] | A431 Cell Proliferation CI Value | IC50 (A431 cells)
1 | Oc1c(C(Nc2ccc(C(F)(F)F)nc2)c2ccc(C(F)(F)F)cc2)ccc2cccnc12 (stereo not drawn) [AD4-13063] | 4400 nM | 0.77 | –
2 | Cc1cc(Cl)cnc1NC(c1ccc2cccnc2c1O)c1c(F)c(F)cc(F)c1F (stereo not drawn) [AD4-13059] | 1000 nM | 0.71 | –
3 | Cc1cccc(NC(c2cc(Cl)cc(Cl)c2Cl)c2ccc3cccnc3c2O)n1 (stereo not drawn) [AD4-13023] | 1800 nM | 0.74 | –
4 | Cc1cccc(NC(c2ccc(Cl)cc2Cl)c2ccc3cccnc3c2O)n1 (stereo not drawn) [AD4-12911] | 1400 nM | 0.76 | –
5 | Oc1c(C(Nc2ccc(F)cn2)c2cc(Cl)cc(Cl)c2Cl)ccc2cccnc12 (stereo not drawn) [AD4-13132] | 1900 nM | 0.82 | –
6 | Cc1cccc(NC(c2ccc(Cl)c(Cl)c2)c2ccc3ccc(C)nc3c2O)n1 (stereo not drawn) [AD4-13080] | – | 0.68 | –
7 | Oc1c(C(Nc2ccc(Cl)cn2)c2c(F)cccc2Cl)ccc2cccnc12 (stereo not drawn) [AD4-13091] | 1600 nM | 0.89 | –
8 | Oc1c(C(Nc2ccc(C(F)(F)F)nc2)c2ccc(C(F)(F)F)c(F)c2)ccc2cccnc12 (stereo not drawn) [AD4-13051] | 1600 nM | 0.72 | –
9 | COc1ccc(C(Nc2ncc(Cl)cc2C)c2ccc3cccnc3c2O)cc1OC (stereo not drawn) [AD4-13193] | – | 0.92 | –
10 | Cc1cc(NC(c2ccc(C(F)(F)F)c(F)c2)c2ccc3cccnc3c2O)ncc1Cl (stereo not drawn) [AD4-13106] | 650 nM | 0.75 | –
11 | Cc1cc(NC(c2ccc3cccnc3c2O)c2c(Cl)cccc2Cl)ncc1F (stereo not drawn) [AD4-13125] | 1700 nM | 0.70 | –
12 | Oc1c(C(Nc2ccc(C(F)(F)F)cn2)c2ccc(C(F)(F)F)c(F)c2)ccc2cccnc12 (stereo not drawn) [AD4-13034] | 1900 nM | 0.70 | –
13 | Cc1ccc2ccc(C(Nc3ncc(Cl)cc3C)c3ccc(Cl)cc3Cl)c(O)c2n1 (stereo not drawn) [AD4-13200] | 1500 nM | 0.97 | –
14 | COc1ccc(C(Nc2cc(Cl)c(Cl)cn2)c2ccc3cccnc3c2O)cc1OC (stereo not drawn) [AD4-13195] | – | 0.81 | –
15 | Cc1cc(Cl)cnc1NC(c1ccc(F)cc1F)c1ccc2cccnc2c1O (stereo not drawn) [AD4-13068] | 5800 nM | 0.68 | –
16 | COc1ccc(C(Nc2cc(Cl)c(Cl)cn2)c2ccc3cccnc3c2O)c(OC)c1OC (stereo not drawn) [AD4-13197] | – | 0.63 | –
17 | Oc1c(C(Nc2ccc(C(F)(F)F)cn2)c2ccc(F)cc2F)ccc2cccnc12 (stereo not drawn) [AD4-13029] | 1800 nM | 0.83 | –
18 | Cc1cccc(NC(c2cccc(Cl)c2Cl)c2ccc3ccc(C)nc3c2O)n1 (stereo not drawn) [AD4-13073] | 1600 nM | 0.85 | –
19 | Cc1cc(NC(c2ccc(C(F)(F)F)cc2C(F)(F)F)c2ccc3cccnc3c2O)ncc1Cl (stereo not drawn) [AD4-13124] | 1600 nM | 0.76 | –
20 | Cc1cc(NC(c2cc(Cl)ccc2Cl)c2ccc3cccnc3c2O)ncc1F (stereo not drawn) [AD4-13118] | – | 0.60 | –
21 | Oc1c(C(Nc2cccnc2)c2cccc(Cl)c2Cl)ccc2cccnc12 (stereo not drawn) [AD4-12908] | 4200 nM | 0.64 | –

Row | Compound | IC50 [1] | A431 Cell Proliferation CI Value | IC50 (A431 cells)
22 | Oc1c(C(Nc2ccc(C(F)(F)F)cn2)c2cc(C(F)(F)F)ccc2Cl)ccc2cccnc12 (stereo not drawn) [AD4-13056] | 1900 nM | 0.63 | –
23 | Oc1c(C(Nc2cccnc2)c2cccs2)ccc2cccnc12 (stereo not drawn) [AD4-10315] | – | 0.79 | –
24 | Oc1c(C(Nc2ccc(C(F)(F)F)cn2)c2ccc(Cl)c(C(F)(F)F)c2)ccc2cccnc12 (stereo not drawn) [AD4-13032] | 1800 nM | 0.69 | –
25 | Oc1c(C(Nc2ccc(F)cn2)c2cc(C(F)(F)F)ccc2Cl)ccc2cccnc12 (stereo not drawn) [AD4-13049] | 1800 nM | 0.84 | –
26 | Oc1c(C(Nc2ccc(F)cn2)c2ccc(Cl)c(C(F)(F)F)c2)ccc2cccnc12 (stereo not drawn) [AD4-13071] | 3500 nM | 0.70 | –
27 | Oc1c(C(Nc2ccc(F)cn2)c2cc(Cl)ccc2Cl)ccc2cccnc12 (stereo not drawn) [AD4-13102] | 1400 nM | 0.75 | –
28 | Cc1cccc(NC(c2cc(Cl)cc(Cl)c2)c2cc(Cl)c3cccnc3c2O)n1 (stereo not drawn) [AD4-13076] | 1400 nM | 0.71 | –
29 | Cc1cc(Cl)cnc1NC(c1ccc(F)cc1Cl)c1ccc2cccnc2c1O (stereo not drawn) [AD4-13198] | – | 0.87 | 3000 nM
30 | Oc1c(C(Nc2ccc(Cl)cn2)c2c(Cl)cccc2Cl)ccc2cccnc12 (stereo not drawn) [AD4-13109] | 1500 nM | 0.88 | –
31 | Cc1cc(Cl)cnc1NC(c1cc(C(F)(F)F)ccc1Cl)c1ccc2cccnc2c1O (stereo not drawn) [AD4-13058] | – | 0.50 | –
32 | Oc1c(C(Nc2ccc(F)cn2)c2c(F)cccc2Cl)ccc2cccnc12 (stereo not drawn) [AD4-13112] | 2100 nM | 0.73 | –
33 | Cc1ccnc(NC(c2ccc(C(F)(F)F)cc2F)c2ccc3ccc(C)nc3c2O)c1 (stereo not drawn) [AD4-13096] | 3000 nM | 0.61 | –
34 | Cc1cccc(NC(c2ccc(Cl)cc2Cl)c2ccc3ccc(C)nc3c2O)n1 (stereo not drawn) [AD4-13082] | 1900 nM | 0.90 | –
35 | Cc1cccc(NC(c2cccc(Cl)c2Cl)c2ccc3cccnc3c2O)n1 (stereo not drawn) [AD4-12905] | – | 0.67 | –
36 | Cc1nc(NC(c2ccc(Cl)c(Cl)c2)c2ccc3cccnc3c2O)c(Cl)cc1Cl (stereo not drawn) [AD4-13202] | – | 0.87 | –
37 | Oc1c(C(Nc2ccc(Cl)cn2)c2ccc(C(F)(F)F)c(F)c2)ccc2cccnc12 (stereo not drawn) [AD4-13055] | 1500 nM | 0.75 | –
38 | Cc1cc(Cl)cnc1NC(c1ccc(F)cc1Cl)c1ccc2cccnc2c1O (stereo not drawn) [AD4-13139] | – | 0.75 | 1400 nM
39 | Cc1cc(NC(c2ccc(C(F)(F)F)cc2)c2ccc3cccnc3c2O)ncc1Cl (stereo not drawn) [AD4-13121] | 1900 nM | 0.75 | –
40 | Cc1cc(NC(c2ccc3cccnc3c2O)c2c(F)cccc2Cl)ncc1F (stereo not drawn) [AD4-13117] | 1300 nM | 0.72 | –
41 | Oc1c(C(Nc2ccc(C(F)(F)F)nc2)c2ccc(Cl)c(Cl)c2)ccc2cccnc12 (stereo not drawn) [AD4-13064] | 5100 nM | 0.64 | –
42 | Cc1cc(NC(c2cc(Cl)cc(Cl)c2)c2ccc3cccnc3c2O)ncc1F (stereo not drawn) [AD4-13114] | 860 nM | 0.81 | –

Row | Compound | IC50 [1] | A431 Cell Proliferation CI Value | IC50 (A431 cells)
43 | Oc1c(C(Nc2ccc(C(F)(F)F)cn2)c2ccc(C(F)(F)F)cc2F)ccc2cccnc12 (stereo not drawn) [AD4-13031] | 1600 nM | 0.74 | –
44 | Oc1c(C(Nc2ccc(C(F)(F)F)cn2)c2ccc(Cl)c(Cl)c2)ccc2cccnc12 (stereo not drawn) [AD4-13030] | 2000 nM | 0.83 | –
45 | Oc1c(C(Nc2ccccn2)c2cc(Cl)cc(Cl)c2)ccc2cccnc12 (stereo not drawn) [AD4-12914] | 1400 nM | 0.74 | –
46 | Oc1c(C(Nc2ccc(F)cn2)c2ccc(C(F)(F)F)c(F)c2)ccc2cccnc12 (stereo not drawn) [AD4-13061] | 2200 nM | 0.79 | –
47 | Oc1c(C(Nc2ccc(Cl)cn2)c2cccc(Cl)c2Cl)ccc2cccnc12 (stereo not drawn) [AD4-13086] | 1500 nM | 0.80 | –
48 | Oc1c(C(Nc2ccc(Cl)cn2)c2ccc(Cl)c(C(F)(F)F)c2)ccc2cccnc12 (stereo not drawn) [AD4-13067] | – | 0.63 | –
49 | Cc1cc(NC(c2ccccc2Cl)c2ccc3cccnc3c2O)ncc1F (stereo not drawn) [AD4-13116] | – | 0.52 | –
50 | Oc1c(C(Nc2ccc(C(F)(F)F)cn2)c2ccc(C(F)(F)F)cc2)ccc2cccnc12 (stereo not drawn) [AD4-13028] | 1800 nM | 0.76 | –
51 | Cc1cccc(NC(c2cccc(C(F)(F)F)c2)c2ccc3cccnc3c2O)n1 (stereo not drawn) [AD4-12903] | – | 0.67 | –
52 | Cc1cc(Cl)ccc1NC(c1ccc(Cl)cc1Cl)c1ccc2cccnc2c1O (stereo not drawn) [AD4-13201] | 2000 nM | 0.82 | –
53 | Oc1c(C(Nc2ncc(Cl)cc2F)c2cccc(C(F)(F)F)c2)ccc2cccnc12 (stereo not drawn) [AD4-13145] | 2400 nM | 0.86 | –
54 | Oc1c(C(Nc2ccc(F)cn2)c2ccccc2Cl)ccc2cccnc12 (stereo not drawn) [AD4-13104] | 2800 nM | 0.67 | –
55 | Oc1c(C(Nc2cc(Cl)c(Cl)cn2)c2ccc(Cl)c(Cl)c2)ccc2cccnc12 (stereo not drawn) [AD4-13177] | 2000 nM | 0.9 | –
56 | Cc1cc(NC(c2ccc(Cl)c(C(F)(F)F)c2)c2ccc3cccnc3c2O)ncc1Cl (stereo not drawn) [AD4-13108] | 1600 nM | 0.84 | –
57 | Cc1cccc(NC(c2ccc3ccc(C)nc3c2O)c2c(Cl)cccc2Cl)n1 (stereo not drawn) [AD4-13089] | – | 0.67 | –
58 | Oc1c(C(Nc2cc(Cl)ccn2)c2ccc(Cl)c(Cl)c2)ccc2cccnc12 (stereo not drawn) [AD4-13069] | 920 nM | 0.91 | –
59 | Cc1cccc(NC(c2ccc(OC(F)(F)F)cc2)c2ccc3cccnc3c2O)n1 (stereo not drawn) [AD4-12902] | – | 0.7 | –
60 | Oc1c(C(Nc2ccc(Cl)cn2)c2cc(C(F)(F)F)ccc2Cl)ccc2cccnc12 (stereo not drawn) [AD4-13052] | 1000 nM | 0.75 | –
61 | COc1ccc(C(Nc2cc(C)c(Cl)cn2)c2ccc3cccnc3c2O)c(OC)c1OC (stereo not drawn) [AD4-13196] | – | 0.69 | –
62 | Cc1cccc(NC(c2ccc3cccnc3c2O)c2c(F)c(F)cc(F)c2F)n1 (stereo not drawn) [AD4-12918] | – | 0.65 | –
